# From PubChem BioAssay (NCI)
#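 Step 1: Grow cells in 96-well plates. Step 2: Expose to compound for 48 hours at 5 concentrations. Step 3: Interpolate endpoints linearly; if unreached, use highest concentration. TGI denotes the concentration required for complete inhibition of growth.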
# What was measured:
# Experiment in all cases: growth of human tumour cells (NCI), 48 h
# DU-145 prostate = test system: DU-145 prostate
# PC-3 prostate = test system: PC-3 prostate
# ACHN renal = test system: ACHN renal
# LOX IMVI melanoma = test system: LOX IMVI melanoma
# COLO 205 colon = test system: COLO 205 colon
# RXF 393 renal = test system: RXF 393 renal
# NCI/ADR-RES ovarian = test system: NCI/ADR-RES ovarian
# CAKI-1 renal = test system: CAKI-1 renal
# 786-0 renal = test system: 786-0 renal
# SW-620 colon = test system: SW-620 colon
# M14 melanoma = test system: M14 melanoma
# U251 CNS = test system: U251 CNS
# SK-OV-3 ovarian = test system: SK-OV-3 ovarian
# UO-31 renal = test system: UO-31 renal
# OVCAR-4 ovarian = test system: OVCAR-4 ovarian
# MOLT-4 leukemia = test system: MOLT-4 leukemia
# SF-268 CNS = test system: SF-268 CNS
# SF-539 CNS = test system: SF-539 CNS
# NCI-H23 lung = test system: NCI-H23 lung
# MCF7 breast = test system: MCF7 breast
# OVCAR-8 ovarian = test system: OVCAR-8 ovarian
# NCI-H226 lung = test system: NCI-H226 lung
# MDA-N = test system: MDA-N
# UACC-257 melanoma = test system: UACC-257 melanoma
# SK-MEL-2 melanoma = test system: SK-MEL-2 melanoma
# HCT-116 colon = test system: HCT-116 colon
# IGROV1 ovarian = test system: IGROV1 ovarian
# MDA-MB-231 breast = test system: MDA-MB-231 breast
# OVCAR-3 ovarian = test system: OVCAR-3 ovarian
# NCI-H460 lung = test system: NCI-H460 lung
# SNB-19 CNS = test system: SNB-19 CNS
# SR leukemia = test system: SR leukemia
# MALME-3M melanoma = test system: MALME-3M melanoma
# UACC-62 melanoma = test system: UACC-62 melanoma
# HCC-2998 colon = test system: HCC-2998 colon
# HT29 colon = test system: HT29 colon
# KM12 colon = test system: KM12 colon
# SF-295 CNS = test system: SF-295 CNS
# NCI-H522 lung = test system: NCI-H522 lung
# HS 578T breast = test system: HS 578T breast
# A549 NSCLC = test system: A549 NSCLC
# OVCAR-5 ovarian = test system: OVCAR-5 ovarian
# SK-MEL-5 melanoma = test system: SK-MEL-5 melanoma
# HOP-62 NSCLC = test system: HOP-62 NSCLC
# EKVX NSCLC = test system: EKVX NSCLC
# BT-549 breast = test system: BT-549 breast
# HOP-92 NSCLC = test system: HOP-92 NSCLC
# K-562 leukemia = test system: K-562 leukemia
# SN12C renal = test system: SN12C renal
# SNB-75 CNS = test system: SNB-75 CNS
# HCT-15 colon = test system: HCT-15 colon
# SK-MEL-28 melanoma = test system: SK-MEL-28 melanoma
# MDA-MB-435 = test system: MDA-MB-435
# HL-60(TB) leukemia = test system: HL-60(TB) leukemia
# A498 renal = test system: A498 renal
# RPMI-8226 leukemia = test system: RPMI-8226 leukemia
# TK-10 renal = test system: TK-10 renal
# CCRF-CEM leukemia = test system: CCRF-CEM leukemia
structure (smiles),measurement,setting,value
O=c1c2cc(I)ccc2nc(Sc2ccc([N+](=O)[O-])cc2[N+](=O)[O-])n1Cc1ccccc1,TGI,DU-145 prostate,12.7 µM
same,TGI,PC-3 prostate,13.8 µM
same,TGI,ACHN renal,26.1 µM
same,TGI,LOX IMVI melanoma,2.89 µM
same,TGI,COLO 205 colon,17.2 µM
same,TGI,RXF 393 renal,12.4 µM
same,TGI,NCI/ADR-RES ovarian,5.44 µM
same,TGI,CAKI-1 renal,24.7 µM
same,TGI,786-0 renal,2.25 µM
same,TGI,SW-620 colon,> 100 µM
same,TGI,M14 melanoma,5.31 µM
same,TGI,U251 CNS,13.2 µM
same,TGI,SK-OV-3 ovarian,> 56.8 µM
same,TGI,UO-31 renal,4.13 µM
same,TGI,OVCAR-4 ovarian,15.6 µM
same,TGI,MOLT-4 leukemia,> 100 µM
same,TGI,SF-268 CNS,3.77 µM
same,TGI,SF-539 CNS,4.09 µM
same,TGI,NCI-H23 lung,14.2 µM
same,TGI,MCF7 breast,5.59 µM
same,TGI,OVCAR-8 ovarian,4.58 µM
same,TGI,NCI-H226 lung,10.3 µM
same,TGI,MDA-N,3.89 µM
same,TGI,UACC-257 melanoma,15.4 µM
same,TGI,SK-MEL-2 melanoma,3.73 µM
same,TGI,HCT-116 colon,2.71 µM
same,TGI,IGROV1 ovarian,6.42 µM
same,TGI,MDA-MB-231 breast,16.9 µM
same,TGI,OVCAR-3 ovarian,4.87 µM
same,TGI,NCI-H460 lung,29 µM
same,TGI,SNB-19 CNS,20.4 µM
same,TGI,SR leukemia,> 100 µM
same,TGI,MALME-3M melanoma,17.1 µM
same,TGI,UACC-62 melanoma,7.24 µM
same,TGI,HCC-2998 colon,11.1 µM
same,TGI,HT29 colon,13.6 µM
same,TGI,KM12 colon,> 31.2 µM
same,TGI,SF-295 CNS,35.3 µM
same,TGI,NCI-H522 lung,2.57 µM
same,TGI,HS 578T breast,> 36.1 µM
same,TGI,A549 NSCLC,> 85 µM
same,TGI,OVCAR-5 ovarian,22.7 µM
same,TGI,SK-MEL-5 melanoma,17.8 µM
same,TGI,HOP-62 NSCLC,12.3 µM
same,TGI,EKVX NSCLC,17.4 µM
same,TGI,BT-549 breast,9.46 µM
same,TGI,HOP-92 NSCLC,8.56 µM
same,TGI,K-562 leukemia,> 100 µM
same,TGI,SN12C renal,2.95 µM
same,TGI,SNB-75 CNS,16.7 µM
same,TGI,HCT-15 colon,3.82 µM
same,TGI,SK-MEL-28 melanoma,35.2 µM
same,TGI,MDA-MB-435,5.35 µM
same,TGI,HL-60(TB) leukemia,5.5 µM
same,TGI,A498 renal,21.3 µM
same,TGI,RPMI-8226 leukemia,> 20.1 µM
same,TGI,TK-10 renal,20.7 µM
O=C1Nc2c(Cl)cc(Cl)cc2C1=O,TGI,PC-3 prostate,> 100 µM
same,TGI,ACHN renal,> 100 µM
same,TGI,LOX IMVI melanoma,35.5 µM
same,TGI,COLO 205 colon,50.8 µM
same,TGI,RXF 393 renal,28.2 µM
same,TGI,NCI/ADR-RES ovarian,54.5 µM
same,TGI,CAKI-1 renal,35.4 µM
same,TGI,786-0 renal,39.5 µM
same,TGI,SW-620 colon,41.5 µM
same,TGI,M14 melanoma,38.6 µM
same,TGI,U251 CNS,55.2 µM
same,TGI,SK-OV-3 ovarian,> 100 µM
same,TGI,UO-31 renal,44.9 µM
same,TGI,OVCAR-4 ovarian,33.1 µM
same,TGI,MOLT-4 leukemia,48.6 µM
same,TGI,SF-539 CNS,34.4 µM
same,TGI,NCI-H23 lung,48.7 µM
same,TGI,MCF7 breast,39.6 µM
same,TGI,CCRF-CEM leukemia,72.9 µM
same,TGI,OVCAR-8 ovarian,55.8 µM
same,TGI,NCI-H226 lung,46.6 µM
same,TGI,MDA-N,21.8 µM
same,TGI,UACC-257 melanoma,35.1 µM
same,TGI,SK-MEL-2 melanoma,29.7 µM
same,TGI,HCT-116 colon,40.5 µM
same,TGI,IGROV1 ovarian,50.3 µM
same,TGI,MDA-MB-231 breast,45.9 µM
same,TGI,OVCAR-3 ovarian,52.5 µM
same,TGI,NCI-H460 lung,47.6 µM
same,TGI,SNB-19 CNS,> 100 µM
same,TGI,SR leukemia,39.4 µM
same,TGI,MALME-3M melanoma,7.88 µM
same,TGI,UACC-62 melanoma,30.2 µM
same,TGI,HCC-2998 colon,83.4 µM
same,TGI,HT29 colon,> 100 µM
same,TGI,KM12 colon,> 100 µM
same,TGI,SF-295 CNS,31.8 µM
same,TGI,HS 578T breast,37.6 µM
same,TGI,A549 NSCLC,35.9 µM
same,TGI,OVCAR-5 ovarian,40.7 µM
same,TGI,SK-MEL-5 melanoma,28.8 µM
same,TGI,HOP-62 NSCLC,40.4 µM
same,TGI,EKVX NSCLC,29.6 µM
same,TGI,BT-549 breast,35.1 µM
same,TGI,HOP-92 NSCLC,57.5 µM
same,TGI,K-562 leukemia,> 100 µM
same,TGI,SN12C renal,32.2 µM
same,TGI,SNB-75 CNS,28.6 µM
same,TGI,HCT-15 colon,47.5 µM
same,TGI,SK-MEL-28 melanoma,35.4 µM
same,TGI,MDA-MB-435,15.2 µM
same,TGI,HL-60(TB) leukemia,26.7 µM
same,TGI,A498 renal,53.4 µM
same,TGI,TK-10 renal,> 100 µM
